According to patent US20240358625A1, “STABILIZATION OF MYCOSPORINE-LIKE AMINO ACIDS” (NAGASE & CO., LTD., priority 2021, published 2024):

Assays:
Format in all cases: physicochemical
[1] = Influence of pH on the stability of MG in solution and coloring of the MG solution
Experimental: Influence of pH on the stability of MG in a solution and the coloring of an MG solution were investigated. Adjustment of the solution to each pH was performed using 0.1 M phosphate buffer and phosphoric acid and NaOH as necessary. The MG concentration in the solution was 0.1%. MG solutions of each pH were prepared and left at 60° C. for 4 days, and then the amount of MG and the absorbance (400 nm) of the solutions were measured. The MG residual rate was determined by comparing with the amount at the start of the experiment.

[2] = Effect of 4-DG ratio on stabilizing MG and on coloring of the MG solution; conditions: MG 0.1%, 4-DG ratio 1.5 to 11.1 parts by weight
Experimental: The effect of 4-DG on stabilizing MG was investigated. Solutions at pH 7 (in 0.1M phosphate buffer) containing various ratios of 4-DG to MG (0.1%) were prepared, and the amount of MG after standing at 60° C. for 57 days was measured. Then, the MG residual rate was determined. Additionally, the absorbance (400 nm) of the solution was measured over time during the experiment period.

[3] = Influence of bases constituting nucleic acids on the stability of MGA (residual rate); conditions: 0.1% MGA, pH 7.5, 60° C. for 3 days; adenine 0.01%, guanine, cytosine, uracil, thymine 0.2%
Experimental: The influence of bases (adenine, guanine, cytosine, uracil, and thymine) constituting nucleic acids on the stability of MGA and MG was investigated. A 0.1% MGA solution (adjusted to pH 7.5 with 0.1M phosphate buffer) each containing adenine (0.01%), guanine (0.2%), cytosine (0.2%), uracil (0.2%), or thymine (0.2%) was prepared. A 0.1% MG solution (adjusted to pH 7.5 with 0.1M phosphate buffer) each containing adenine (0.01%), cytosine (0.2%), uracil (0.2%), or thymine (0.2%) was prepared. After these solutions were left at 60° C. for 3 days for MGA, 20 days and 49 days for MG, the amounts of MGA and MG were measured to determine the residual rate.

[4] = weakly acidic to weakly alkaline conditions, 60° C. for 4 days

Row | Compound | MG residual rate ([1]; 0.1% MG, 0.1 M phosphate buffer, pH 5.4 to 8.8, 60° C. for 4 days) [%] | absorbance (400 nm) of the solution ([1]; 0.1% MG, pH 5.4 to 8.0, 60° C. for 4 days) | coloring of the MG solution [1, 4] | stability of MG [1, 4] | residual rate of MG ([2]; pH 7, 60° C. for 57 days) [%] | absorbance (400 nm) of the solution ([2]; pH 7, 60° C., 57th day) | stabilizing effect on MGA [3]
1 | COC1=C(NCC(=O)O)C[C@@](O)(CO)CC1=O [MG, mycosporine-glycine] | ≥ 88 | ≤ 0.018 | suppressed | stabilized | ≥ 74 | ≤ 0.17 | 
2 | Nc1nc2nc[nH]c2c(=O)[nH]1 [guanine] |  |  |  |  |  |  | confirmed
